Entries after “also recorded” stand apart in the source; their conditions may differ.
How the values were obtained:
[1] = system: 5′-biotinylated C-CpG; assay: TSM acoustic biosensor, peptide binding to immobilized C-CpG
Source text: To characterize the interaction of the studied synthetic ODNs with the LRR11 peptide, we applied the thickness shear mode (TSM) acoustic biosensor method, which is based on the investigation of ultrasonic waves in piezoelectric materials such as AT-cut quartz. This approach involved immobilizing a 5′-biotinylated ODN on the surface of TSM transducer covered by NeutrAvidin and then adding the LRR11 peptide. An unrelated peptide (URP) with a random primary structure ([…]) was used as a negative control. The measurement procedure was divided into several steps, in which each immobilization stage was followed by washing with an appropriate buffer solution; when peptide solutions at different concentrations (from 1 to 100 nM) were added to the surface-modified TSM transducer, a wash with Hanks buffer was used before increasing the peptide concentration.
Based on Langmuir isotherm Equation (1), (1) Δfcc=Δfsmaxc/KD+c where Δfs(c) is the frequency change at a certain peptide concentration under equilibrium conditions, (Δfs)max is the maximum frequency change, c is the peptide concentration, and KD is the equilibrium constant of dissociation, we estimated the (Δfs)max and KD values for binding of the LRR11 peptide to C-CpG and B-CpG (Table 3).
Using Sauerbrey’s Equation (2), (2) Δf=−2f02Δm/Aμqρq where f0 is the fundamental resonance frequency (in our case 8 MHz), Δm is the change in mass (in grams) of the adsorbed layer on the crystal surface, A is the effective crystal area (in our case 0.2 cm^2), μq = 2.947 × 10^11 g × cm^−1s^−2 is the shear modulus of elasticity, and ρq = 2.648 g × cm^−3 is the crystal density, surface concentrations of NeutrAvidin, ODN and LRR11 peptide were estimated based on changes of resonance frequency (Figure 4). According to Equation (2), the surface density of molecules, σ (in molecules/cm^2), can be calculated as σ = ΔmNA/(A × Mw), where NA is Avogadro’s number (=6.023 × 10^23 mol^−1), and Mw represents the molecular weight of the corresponding compound (NeutrAvidin: 65 kDa, 5′-biotinylated C-CpG: 7115.4 Da, and LRR11: 3421 Da). Based on this approach, we obtained the following surface concentration values: 1.94 × 10^13 cm^−2 for NeutrAvidin, 3.37 × 10^13 cm^−2 for C-CpG and 2.4 × 10^13 cm^−2 for LRR11. The NeutrAvidin has four binding sites, two of which are available for biotinylated ODN binding. This is due to the fact that the other two sites are inaccessible due to NeutrAvidin chemisorption on the TSM surface. Thus, the number of available binding sites for the ODN is 3.88 × 10^13 cm^−2. […] Therefore, the surface of the TSM transducer is practically completely saturated by C-CpG. Estimation of the surface concentration of LRR11 evidences that at 50 nM concentration of this peptide, it occupies almost 70.6% of the ODN molecules. […]

[2] = system: human neutrophils; assay: Reactive oxygen species formation (H2DCF-DA); format: cell-based; settings: n = 3, Figure 8
Experimental: Figure 8 When added simultaneously, LRR11 potentiates the prooxidant effects of oligonucleotides. H2DCF-DA-stained PMNLs (1 × 10^6/mL) were cultured for 1 h at 37 °C in 5% CO2 without additives or in the presence of 1 µM ODN, supplemented (shaded) or not (solid fill) with 1 µM LRR11. DCF green fluorescence signals (ex. 485 nm, em. 538 nm) were monitored every 5 min for an hour. Values represent the means ± SEM of DCF fluorescence intensity increments (RFU) in 30 min after stimulus addition (n = 3). * p < 0.05 for the pairs of data specified, as indicated by two-way ANOVA followed by Tukey’s multiple comparison test.
The level of intracellular production of reactive oxygen species was monitored by measuring the green fluorescence of H2DCF-DA-labeled oxidized product incorporated into cells according to the manufacturer’s protocol. Briefly, human neutrophils were incubated with 5 μM carboxy-H2DCF-DA (Molecular Probe, Eugene, OR, USA) for 60 min at room temperature, followed by rinsing with PBS. […] Fluorescent cell staining (excitation at 485 nm and emission at 538 nm) was recorded at CLARIOstar fluorescence microplate reader, using MARS Data Analysis Software, version 3.30 (both hardware and software are from BMG Labtech, Ortenberg, Germany).

Substance: QLRKLNLSFNYQKRVSFAHLSLAPSFGSLV [LRR11, 30 amino acid peptide from leucine-rich repeat of TLR9]
- change of ∆fs at low LRR11 concentrations ([1]; 1, 5, 10 nM LRR11, C-CpG): not significant or small changes of ∆fs
- effect of LRR11 on prooxidant potential of ODNs ([2]; 1 µM LRR11 + 1 µM ODN, 30 min): Notably enhancing the prooxidant potential of the studied ODNs, in particular, CpG-containing ones; also recorded: only CpG-ODNs in combination with LRR11 enhanced responses
- effect of LRR11 alone on synthesis of reactive oxygen species ([2]; 1 µM LRR11, 37 °C): does not affect the synthesis of reactive oxygen species

Substance: 5′-tcgtcgttttcggcgcgcgccg-3′ (DNA TCGTCGTTTTCGGCGCGCGCCG; chemistry not fully specified) [C-CpG]
- KA ([1]; LRR11-C-CpG complex, KA = 1/KD): 0.017 ± 0.007 nM⁻¹
- −(Δfs)max ([1]; LRR11 to immobilized C-CpG, Langmuir fit, Hanks buffer, room temperature, LRR11 1-100 nM, three independent experiments): 33.9 ± 6.4 Hz

— publication PMC7961786, “Magic Peptide: Unique Properties of the LRR11 Peptide in the Activation of Leukotriene Synthesis in Human Neutrophils” (International Journal of Molecular Sciences, 2021)
